Key:
[1] = system: cholesterol trafficking to the endoplasmic reticulum; assay: Whole-cell cholesterol esterification assay (cholesterol trafficking to ER membranes); format: cell-based, mouse
Procedure: Shown is the mean±S.E.M (n=3) of [^3H]cholesteryl ester formed (in cpm/mg cell protein).
Macrophages were incubated for 5 h with DMEM, 0.2% BSA containing 50 μg/ml [^3H]cholesterol-labeled acetyl-LDL alone or containing the indicated compounds. Cellular lipids were extracted twice with 0.5 ml of hexane:isopropanol (3:2, v/v), and the cellular content of [^3H]cholesteryl ester was determined using thin-layer chromatography (49). The lipid-extracted cell monolayer was dissolved in 1 ml 1N NaOH and assayed for protein content using the method of Lowry et al. (50).

[2] = system: ABCA1-independent efflux to HDL2; assay: 3H-cholesterol efflux to HDL2 from free cholesterol-loaded macrophages; format: cell-based, mouse; conditions: 70 nM, FC-loaded macrophages (FIG. 12B)
Procedure: Acetyl-LDL (800 μg) was incubated with 10 μCi ^3H-cholesterol for 30 min at 37° C., followed by addition of 8 ml of DMEM, 0.2% BSA. The macrophages were incubated with this medium for 5 h, washed 3 times with PBS, and then incubated with DMEM, 0.2% BSA for 15 min at 37° C. After washing with PBS, the macrophages were incubated with DMEM, 0.2% BSA, containing either 15 μg/ml apoAI or 20 μg/ml HDL2. At the indicated time points, 100 μl of media was removed and centrifuged for 5 min at 14,000 rpm to pellet cellular debris. The radioactivity in this fraction of media was quantitated by liquid scintillation counting. After the last time point, the remainder of the media was removed, and the cells were dissolved in 0.5 ml of 0.1 N NaOH containing 0.5% sodium dodecylsulfate (5 h at room temperature). A 100 μl-aliquot of the cell lysate was counted, and the percent efflux was calculated as (media cpm)[…](cell +media cpm)×100. Total protein in the cell lysate was determined using the Bio-Rad DC protein assay kit. Note that there was no statistical difference in cellular cpm or protein between cholesteryl ester- and free cholesterol-loaded macrophages.

[3] = system: ABCA1 protein; assay: ABCA1 immunoblot of total and cell-surface protein in cholesterol-loaded macrophages; format: cell-based, mouse
Procedure: Macrophages were pre-incubated for 14 h with 50 μg/ml acetyl-LDL in DMEM, 0.2% BSA, in the absence (CE) or presence (FC) of 58035. The cells were then incubated for 5 h with 100 μg/ml acetyl-LDL in DMEM, 0.2% BSA, in the absence or presence of 58035, respectively, with no further additions (Control) or in the presence of 10 μg/ml cycloheximide, 50 μM ALLN, or 50 μM lactacystin as indicated. Aliquots of cell lysates were then assayed for ABCA1 and β-actin protein by immunoblot analysis.
Macrophages were pre-incubated for 14 h with 50 μg/ml acetyl-LDL in DMEM, 0.2% BSA, in the absence (CE) or presence (FC) of 58035. […] Aliquots of total cell protein (top panel) or cell-surface protein (bottom panel) were then subjected to immunoblot analysis for ABCA1 and the standards β-actin or β1-integrin.
Macrophage monolayers in 35-mm dishes were washed with ice-cold PBS 3 times and then incubated with ice-cold PBS containing 0.5 mg/ml NHS—SS-biotin (Pierce) for 30 minutes at 4° C. After washing 5 times with ice-cold PBS containing 20 mM Tris-HCl, pH 8.0, the cells were scraped into PBS and pelleted by centrifugation. The pelleted macrophages were lysed in 50 μl RIPA buffer (0.5% sodium deoxycholate, 0.1% SDS, 1% Triton X-100, 20 mM Tris, 150 mM NaCl, and 5 mM EDTA, pH 8) containing 1 mM PMSF. […] of the lysate were subjected directly to 4-20% gradient SDS-polyacrylamide gel electrophoresis (SDS-PAGE) for determination of total ABCA1. The rest of the cell lysate was affinity-purified to isolate biotinylated proteins. Briefly, the cell lysates were diluted to 150 μl in RIPA buffer and incubated with 50 μl immobilized streptavidin agarose (Pierce), which was pre-washed three times with RIPA buffer at 0° C. for 2 h with gentle shaking. The agarose was pelleted by centrifugation using a microcentrifuge at 5,000 rpm for 2 min; the pellet was resuspended in 1 ml RIPA buffer, and the process was repeated 5 times. The agarose was resuspended 30 μl SDS-PAGE loading buffer containing 330 mM β-mercaptoethanol at 37^6C for 15 min and subjected to SDS-PAGE as above. ABCA1 and β-integrin were detected by Western blot using anti-ABCA1 and anti-β-integrin anti-sera. The blots were reprobed with anti-β-actin antibody, which detected no actin signal, thus verifying that no cytosolic protein was biotinylated by the procedure.
Peritoneal macrophages were lysed in RIPA buffer containing 1 mM PMSF. Nuclei were removed by centrifugation at 3000×g for 10 min at 4° C. […] For Western blot detection of ABCA1, anti-ABCA1 antiserum was used. Signals were detected using HRP-conjugated secondary anti-bodies (Bio-Rad) and ECL (Amersham Pharmacia Biotech). The membranes were reprobed with anti-β actin monoclonal antibody or anti-β1-integrin anti-serum for the proper internal controls. The relative intensities of the bands were determined by densitometry.

[4] = system: cholesterol trafficking to the plasma membrane; assay: Cholesterol oxidase assay (plasma membrane cholesterol); format: cell-based, mouse
Procedure: Shown is the mass (in μg/mg cell protein) of cholesterol (Chol, open bars), which is the cholesterol oxidase-inaccessible pool of intracellular cholesterol, and of cholestenone (CN, striped bars), which is the cholesterol oxidase-accessible pool of plasma membrane cholesterol.
Macrophages were fixed with 1% glutaraldehyde for 10 min and then incubated for 30 min at 37° C. with 2 U/ml Streptomyces cholesterol oxidase. Cellular lipids were extracted twice with 0.5 ml of hexane:isopropanol (3:2).
Cholesterol and.cholestenone mass in these extracts were determined by gas-liquid chromatography using β-sitosterol as an internal standard. The lipid-extracted cell monolayer was dissolved in 1 ml 1N NaOH and assayed for protein content using the method of Lowry et al. (50).

[5] = system: mouse peritoneal macrophages; assay: Annexin V / propidium iodide cell death assay of macrophages
Text: Representative fluorescence images and quantitative cell death data from five fields of cells for each condition are shown, expressed as the percent of total cells that stained with annexin V or propidium iodide (mean±S.E.M.; n=5 fields of cells, where each field had ˜200 cells).
Representative fluorescence images and quantitative data are shown (mean±S.E.M.; n=5 fields of cells, where each field had ˜200 cells).
Representative fluorescence images are shown in FIG. 19A, and quantitative apoptosis data from five fields of cells for each condition are shown in FIG. 19B, expressed as the percent of total cells that stained with annexin V or propidium iodide (mean±S.E.M.; n=5 fields of cells, where each field had ˜200 cells).
Peritoneal macrophages from adult female C57BL/6 mice and all mutant mice used in this study were harvested three days after the intraperitoneal injection of 40/g of concanavalin A in 0.5 ml of PBS. The cells were incubated in Dulbecco's modified Eagle's medium (DMEM) supplemented with 10% fetal bovine serum (FBS) and 20% L-cell conditioned medium. The medium was replaced every 24 hours until the macrophages were confluent. On the day of the experiment, the cells were washed three times with warm PBS and incubated as indicated in the Description of Figures for FIGS. 15A-20E. Most importantly, FC-loading of wild type and mutant macrophages was effected by incubating the cells with 100 μg/ml acetyl-LDL in the presence of 10 μg/ml 58035, which inhibits ACAT-mediated cholesterol esterification (11). At the end of the incubation period, the macrophages were assayed for early-mid-stage apoptosis (i.e., phosphatidylserine externalization) by staining with Alexa-488-labeled annexin V and for late-stage apoptosis (i.e., increased membrane permeability) by staining with propidium iodide (PI), as previously described (11). Cells were immediately viewed with an Olympus IX-70 inverted fluorescence microscope, and 3-6 representative fields (˜1000 cells) for each condition were counted for the number of annexin-positive, PI-positive, and total cells.

[6] = system: unfolded protein response (UPR); assay: Immunoblot analysis of UPR markers (CHOP, PERK, IRE1α, XBP-1) in macrophages
Procedure: For detection of PERK, nuclei-free cell extracts were immunoprecipitated with anti-PERK antiserum and then immunoblotted, while for detection of ATF-4 and CHOP, immunoblots were performed on nuclear extracts. Lamin B, a nuclear protein, was used as the loading control.
Immunoprecipitation and immunoblot detection for IRE1α and PERK were conducted as described by Harding et al. (35). Immunoblot analyses of XBP-1, ATF4, and CHOP were carried out as described previously (36,38) with minor modifications. Briefly, cells were lysed in RIPA buffer to prepare whole-cell lysates or to prepare nuclei by centrifugation. The whole-cell lysates or nuclei were resuspended in 2×SDS-PAGE loading buffer and incubated at 95° C. for 10 min. Whole cell (100 μg) or nuclear lysates (20 μg) were electrophoresed on 4-20% gradient SDS-PAGE gels and electrotransferred to 0.22-μm nitrocellulose membrane using a Bio-Rad mini-transfer tank. After incubation with primary antibodies, the protein bands were detected with HRP-conjugated secondary antibodies (Bio-Rad) and ECL (Amersham Pharmacia Biotech). The membranes were reprobed with an anti-β-actin monoclonal antibody or an anti-lamin B serum to control for differences in loading.

[7] = system: unfolded protein response (UPR); conditions: very low doses; reference 22; cited from earlier work
[8] = system: ACAT enzyme; conditions: reference 24; cited from earlier work

## CCN(CC)CCO[C@H]1CC[C@@]2(C)C(=CC[C@@H]3[C@@H]2CC[C@]2(C)C(=O)CC[C@@H]32)C1 [U18666A, 3-β-[2-(diethylamino)ethoxy]androst-5-en-17-one]
[1]; 70 nM (data not shown)
  decrease of cholesterol trafficking to the endoplasmic reticulum: about 90%
[1]; low dose (70 nM), 5 h, acetyl-LDL (FIG. 15A)
  reduction of re-esterification of ingested cholesterol: 90%
[2]
  ABCA1-independent efflux (to HDL2): improved
[3]; 70 nM (FIG. 13, top panel)
  ABCA1 protein loss in free cholesterol-loaded cells (total protein): protected from the ABCA1 protein loss
[3]; 70 nM, FC-loaded cells (FIG. 13, bottom panel), 60% in untreated cells
  decrease of cell-surface ABCA1 protein: about 15%
[3]; low concentrations
  ABCA1 protein expression in free cholesterol-loaded cells: markedly enhance
[4]; 70 nM (data not shown)
  reduction of cholesterol trafficking to the plasma membrane: about 10%
[4]; low dose (70 nM), cholesterol oxidase accessibility and cyclodextrin extractability (FIG. 15B)
  accrual of cholesterol in the plasma membrane: no effect
[5]; data not shown
  staurosporine-induced macrophage apoptosis: failed to protect
[5]; low dose (70 nM), 10 h (FIGS. 19A, 19B)
  FC-induced death of Perk−/− macrophages: markedly protected
[5]; low dose (70 nM), acetyl-LDL + 58035, 8 h (FIG. 15C)
  FC-induced macrophage death: protected macrophages from the lethal effect of cholesterol loading
[6]; low dose (70 nM) (FIG. 16D, lane 5)
  IRE1α activation and XBP-1 expression in FC-loaded macrophages: markedly attenuated both events
[6]; low dose (70 nM), 5 h (FIG. 16A, lane 5)
  CHOP induction in FC-loaded macrophages: attenuated CHOP induction
[6]; low dose (70 nM), 5 h (FIG. 16B, lane 5)
  PERK activation in FC-loaded macrophages: blocked PERK activation
[7]
  block of UPR activation in FC-loaded cultured macrophages: almost completely
[8]
  direct inhibitory effect on the ACAT enzyme: no direct inhibitory effect
